This is an account of results in ChEMBL document CHEMBL1201862, “PubChem BioAssay data set” (2004).

Some test systems named below: SNB-75; SF-268; MOLT-4; HL-60; OVCAR-3; SNB-19; NCI-H23; NCI-H460; SK-MEL-2; HCC 2998; K562; SK-MEL-28; SN12C; IGROV-1; SF-295; NCI/ADR-RES; UACC-257; SK-MEL-5; 786-0; TK-10.
Common to all, as to test: NCI anticancer screen, dose series, 48 h

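Each compound was tested at five concentrations against cells in 96-well plates for 48 hours. Abbreviation: GI50, concentration required for 50% inhibition of growth.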 Active and inactive are the calls of the source. No stated cut-off is given here; in the data, active = GI50 up to about 1.1 µM and inactive = higher.

For `CCC(C(C)N1CC(=O)NC(=O)C1)N1CC(=O)NC(=O)C1` (stereo not drawn), the GI50 in the assay with SNB-75 was > 48.9 µM (inactive); in the assay on SF-268, > 87.9 µM (inactive); in the assay with MOLT-4 it was 0.69 µM (active); in the assay with HL-60 it was 2.06 µM (inactive); with OVCAR-3, > 100 µM (inactive); in the assay on SNB-19, > 100 µM (inactive). Also, the GI50 was 29 µM (inactive) in the assay on NCI-H23; 0.141 µM (active) in the assay with NCI-H460; > 100 µM (inactive) with SK-MEL-2; > 61.4 µM (inactive) in the assay with HCC 2998; 9.77 µM (inactive) with K562; > 100 µM (inactive) with SK-MEL-28. Moreover, the GI50 in the assay on SN12C was 6.27 µM (inactive); in the assay on IGROV-1, > 100 µM (inactive); in the assay on SF-295 it was > 100 µM (inactive); in the assay on NCI/ADR-RES, 44.8 µM (inactive); in the assay with UACC-257, > 100 µM (inactive); in the assay on SK-MEL-5 it was 12.5 µM (inactive).

As to `O=S(=O)(OI(O)CC(F)(F)F)C(F)(F)F`, the GI50 with SNB-75, in the assay on 786-0, in the assay with SF-268, in the assay with MOLT-4, with HL-60 and in the assay on OVCAR-3 was > 100 µM (inactive) throughout. Besides, the GI50 in the assay on NCI-H23, in the assay with TK-10, in the assay with NCI-H460, with SK-MEL-2, in the assay on HCC 2998 and with K562 was > 100 µM (inactive) each time. For the same compound, the GI50 in the assay with SK-MEL-28, with SN12C, in the assay on IGROV-1, in the assay on SF-295, in the assay with NCI/ADR-RES and in the assay on UACC-257 was > 100 µM (inactive) each time. In addition, in the assay with SK-MEL-5, the GI50 was > 100 µM (inactive).

Turning to `Cn1cc(C(=O)c2nccc3c2cnc2ccccc23)ccc1=O`, the GI50 in the assay on SNB-75 is 29.4 µM (inactive); in the assay on 786-0 it was > 100 µM (inactive); with SF-268, > 100 µM (inactive); in the assay with MOLT-4, > 100 µM (inactive); with HL-60 it was > 100 µM (inactive); with OVCAR-3 it was > 100 µM (inactive). For the same compound, the GI50 is > 100 µM (inactive) in the assay with SNB-19; > 100 µM (inactive) in the assay on NCI-H23; > 100 µM (inactive) in the assay with TK-10; 26.5 µM (inactive) in the assay with NCI-H460; > 100 µM (inactive) in the assay on SK-MEL-2; > 100 µM (inactive) in the assay with HCC 2998. For the same compound, the GI50 with K562 was > 100 µM (inactive); in the assay with SK-MEL-28, > 100 µM (inactive); with SN12C, 59.3 µM (inactive); in the assay with SF-295, > 100 µM (inactive); with NCI/ADR-RES, > 100 µM (inactive); with UACC-257, > 100 µM (inactive). The GI50 with SK-MEL-5 is 15.3 µM (inactive).

Take `C/C(CC1C2CCCC1C2)=N\NC(N)=O` (stereo not drawn): the GI50 in the assay on SNB-75 was > 100 µM (inactive); with 786-0 it was > 100 µM (inactive); in the assay with SF-268, > 100 µM (inactive); in the assay with MOLT-4, > 100 µM (inactive); in the assay on HL-60, > 100 µM (inactive); in the assay with OVCAR-3, 7.24 µM (inactive). The GI50 in the assay with SNB-19, with NCI-H23, with TK-10, in the assay with NCI-H460, in the assay on SK-MEL-2 and in the assay on HCC 2998 was > 100 µM (inactive) in each case. Also, the GI50 in the assay on SK-MEL-28, with SN12C, with IGROV-1, with SF-295, in the assay with NCI/ADR-RES and in the assay with UACC-257 was > 100 µM (inactive) throughout. For the same compound, in the assay with SK-MEL-5, the GI50 was > 100 µM (inactive).

Consider `O=C1NC(=O)/C(=C/c2ccc(S(=O)(=O)N/N=C/c3ccccc3)cc2)N1`, for which the GI50 in the assay with SNB-75, in the assay with 786-0, with SF-268, with MOLT-4, in the assay on HL-60 and in the assay on OVCAR-3 was > 100 µM (inactive) each time. The GI50 with SNB-19, with NCI-H23, in the assay with TK-10, with SK-MEL-2, in the assay with HCC 2998 and with K562 was > 100 µM (inactive) in each case. The GI50 in the assay on SK-MEL-28, in the assay on SN12C, in the assay on IGROV-1, in the assay on SF-295, in the assay with NCI/ADR-RES and with UACC-257 was > 100 µM (inactive) in each case. Also, the GI50 in the assay with SK-MEL-5 is > 100 µM (inactive).

For `[N-]=[N+]=NCc1cccc(Nc2cc(=O)[nH]c(=O)[nH]2)c1`, the GI50 with SNB-75, in the assay on 786-0, with SF-268, in the assay with MOLT-4, in the assay on HL-60 and with OVCAR-3 was > 100 µM (inactive) in each case. Moreover, the GI50 in the assay with SNB-19, in the assay on NCI-H23, with TK-10, in the assay on SK-MEL-2, with HCC 2998 and with K562 was > 100 µM (inactive) in each case. Besides, the GI50 in the assay on SK-MEL-28 is > 100 µM (inactive); in the assay on SN12C, > 100 µM (inactive); with IGROV-1 it was > 100 µM (inactive); in the assay with SF-295, 57.3 µM (inactive); in the assay on NCI/ADR-RES, > 100 µM (inactive); in the assay with UACC-257, 30.8 µM (inactive). For the same compound, the GI50 in the assay with SK-MEL-5 was > 100 µM (inactive).

Regarding `O=C(Cc1csc2[n+]1C(=O)/C(=C/c1ccc(Cl)cc1)S2)Nc1ccccc1`, the GI50 in the assay on SNB-75 is 23.5 µM (inactive); with 786-0 it was 25.1 µM (inactive); with SF-268 it was 21.5 µM (inactive); in the assay on HL-60, 20.2 µM (inactive); with OVCAR-3 it was 12.8 µM (inactive); in the assay on SNB-19, 34.9 µM (inactive). For the same compound, the GI50 with NCI-H23 is 24.2 µM (inactive); in the assay on TK-10, 31.6 µM (inactive); in the assay on NCI-H460, 18.7 µM (inactive); in the assay on SK-MEL-2, 17.9 µM (inactive); with HCC 2998, 19.6 µM (inactive); with K562, 21.7 µM (inactive). Moreover, the GI50 is 30.4 µM (inactive) in the assay with SK-MEL-28; 32.1 µM (inactive) in the assay with SN12C; 16.9 µM (inactive) in the assay with IGROV-1; 17.5 µM (inactive) in the assay on SF-295; 21.7 µM (inactive) with NCI/ADR-RES; 19.2 µM (inactive) in the assay with UACC-257. Also, the GI50 in the assay with SK-MEL-5 was 10.9 µM (inactive).

As to `CC(C)=CCC/C(C)=C/CC/C(C)=C/CC/C(=C/CC/C(C)=C\CC/C(C)=C/CC/C(C)=C/CC/C(C)=C/Cc1cc(O)ccc1O)CO`, the GI50 in the assay on SNB-75 is 4.02 µM (inactive); in the assay with 786-0, 2.98 µM (inactive); with SF-268, 2.67 µM (inactive); in the assay on HL-60, 3.15 µM (inactive); with OVCAR-3, 4.42 µM (inactive); with SNB-19 it was 7.1 µM (inactive). Also, the GI50 in the assay on NCI-H23 was 0.979 µM (active); with TK-10, 6.61 µM (inactive); in the assay on NCI-H460, 9.57 µM (inactive); in the assay with SK-MEL-2, 3.32 µM (inactive); in the assay with HCC 2998, 9.93 µM (inactive); in the assay with K562 it was 17.7 µM (inactive). In addition, the GI50 was 2.29 µM (inactive) with SK-MEL-28; 17.6 µM (inactive) with SN12C; 2.86 µM (inactive) in the assay on IGROV-1; 1.84 µM (inactive) in the assay with SF-295; 4.51 µM (inactive) with NCI/ADR-RES; 3.07 µM (inactive) in the assay on UACC-257. For the same compound, the GI50 in the assay with SK-MEL-5 was 2.48 µM (inactive).

As for `O=C(O)Cc1cccc2c(=O)c3cccc([N+](=O)[O-])c3[nH]c12`, the GI50 in the assay on SNB-75 was 24.2 µM (inactive); in the assay on 786-0 it was > 100 µM (inactive); in the assay on MOLT-4, > 100 µM (inactive); with HL-60, > 100 µM (inactive); in the assay on OVCAR-3 it was 99.8 µM (inactive); in the assay on SNB-19, 43.3 µM (inactive). The GI50 with NCI-H23 is > 100 µM (inactive); with TK-10, > 100 µM (inactive); in the assay on NCI-H460 it was > 100 µM (inactive); in the assay on SK-MEL-2 it was 72.1 µM (inactive); with HCC 2998, 60.3 µM (inactive); with K562 it was > 100 µM (inactive). For the same compound, the GI50 in the assay on SN12C is 99.1 µM (inactive); in the assay on IGROV-1 it was > 100 µM (inactive); with SF-295 it was > 100 µM (inactive); with NCI/ADR-RES it was > 100 µM (inactive); in the assay with UACC-257, > 100 µM (inactive); with SK-MEL-5, 44.7 µM (inactive).

Take `O=c1cccc2n1C[C@H]1CNC[C@H]2C1`: the GI50 in the assay on SNB-75, in the assay with 786-0, in the assay on SF-268, in the assay on MOLT-4, with HL-60 and with OVCAR-3 was > 100 µM (inactive) each time. The GI50 with SNB-19, with NCI-H23, in the assay with TK-10, in the assay with NCI-H460, in the assay with SK-MEL-2 and in the assay with HCC 2998 was > 100 µM (inactive) each time. In addition, the GI50 with K562, in the assay on SK-MEL-28, with SN12C, in the assay with SF-295, with NCI/ADR-RES and in the assay on UACC-257 was > 100 µM (inactive) each time. Moreover, in the assay on SK-MEL-5, the GI50 was > 100 µM (inactive).
